*1 amine or outer side, *2 acyl side, *3 side chain or, on linkers, in order; H or OH if unused. Where a SMILES comes first, the peptide text is derived from it. Bridges are numbered along the chain shown (N, C = ends). [ ]: non-standard residue; d: D form. The star is where a group is joined. X21 = CN([C@@H](Cc1cc(Cl)ccc1-c1ccc(N2CCN3CCOC[C@H]3C2)cc1)C(=O)[*:2])[*:1]; X103 = CN1CCC(Oc2ccc(-c3ccc(Cl)cc3C[C@@H](C(=O)[*:2])N(C)[*:1])cc2)CC1; X42 = CN([C@@H](Cc1cc(Cl)ccc1-c1cnn(S(=O)(=O)C2CC2)c1)C(=O)[*:2])[*:1]; X40 = CN1CCN(Cc2ccc(-c3ccc(Cl)cc3C[C@@H](C(=O)[*:2])N(C)[*:1])cc2)CC1; X91 = COc1cc(-c2ccc(Cl)cc2C[C@@H](C(=O)[*:2])N(C)[*:1])ccc1N1CCOCC1; X54 = CN([C@@H](Cc1cc(F)ccc1-c1cnn(C2CCC2)c1)C(=O)[*:2])[*:1]; X79 = CC(C)n1cc(-c2ccc(Cl)cc2C[C@@H](C(=O)[*:2])N(C)[*:1])cn1; NMehhhLys(Me) = CN([C@@H](CCCCCCCN(C)[*:3])C(=O)[*:2])[*:1]; X5 = CN([C@@H](Cc1cc(Cl)ccc1-c1cnn2c1OCCC2)C(=O)[*:2])[*:1]; NMe(hhhLys) = CN([C@@H](CCCCCCCN[*:3])C(=O)[*:2])[*:1]; Oxane2carbonyl(2R-CF3) = O=C([C@@]1(C(F)(F)F)CCCCO1)*; X88 = CC(C)c1ccc(Cl)cc1C[C@@H](C(=O)[*:2])N(C)[*:1]; cBuCO(3,3-F2-1-CF3) = O=C(C1(C(F)(F)F)CC(F)(F)C1)*; X4 = Cc1ccc(Cl)cc1C[C@@H](C(=O)[*:2])N(C)[*:1]; Pro(trans-4-F) = O=C(O)[C@@H]1C[C@@H](F)CN1; Gly(cPr) = N[C@H](C(=O)O)C1CC1
How the values were obtained:
WI-38 cells = test: MTT proliferation assay, WI-38; assay type: cell-based; settings: 3 days compound exposure, 1:3 serial dilution starting at 10 μM;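 note: Eight- or ten-point dilution series, with exposure length chosen to span about three to four cell doublings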
OVCAR3 cells = test: MTT proliferation assay, OVCAR3; assay type: cell-based; settings: 5 days compound exposure, 1:3 serial dilution starting at 10 μM;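 note: compound given as an 8- or 10-point series, one day after plating, with exposure covering roughly 3-4 cell doublings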
NCI-H1048 cells = test: MTT proliferation assay, NCI-H1048; assay type: cell-based; settings: 5 days compound exposure, 1:3 serial dilution starting at 10 μM;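 note: Dose-response in 96-well plates over 8 or 10 concentration points, with exposure spanning 3-4 cell doublings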
CyclinB1/CDK1 = target: T1, CyclinB1/CDK1 (Homo sapiens, UniProt P14635); test: Fluorescence Polarization (FP) competitive binding assay, Cyclin B1/Cdk1; settings: 10 nM Cyclin B1/Cdk1, 2 nM FAM probe; average of 2-3 independent experiments; read-out: Cyclin B FP IC50;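 note: fluorescence polarization read after equilibration at room temperature, with IC50 taken from serially diluted dose-response curves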
T1 construct: purchased Eurofins, discovery 14-450

CyclinE1/CDK2 = target: T2, CyclinE1/CDK2 (Homo sapiens, UniProt P24864); test: Fluorescence Polarization (FP) competitive binding assay, Cyclin E1/Cdk2; settings: 10 nM Cyclin E1/Cdk2, 2 nM FAM probe; average of 2-3 independent experiments; read-out: Cyclin E FP IC50;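 note: readings taken after two-hour equilibration at room temperature in HEPES buffer with NaCl, DTT, NP-40 and BSA, IC50 fitted from eight-concentration serial dilution series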
T2 construct: purchased Eurofins, discovery 14-475

CyclinA2/CDK2 = target: T3, CyclinA2/CDK2 (Homo sapiens, UniProt P20248); test: Fluorescence Polarization (FP) competitive binding assay, Cyclin A2/Cdk2; settings: 8 nM Cyclin A2/Cdk2, 2 nM FAM probe; average of 2-3 independent experiments; read-out: Cyclin A FP IC50;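 note: plates equilibrated two hours at room temperature before polarization reading, IC50 fitted from eight-concentration compound titration curves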
T3 construct: purchased CRELUX Protein Services

Row | Compound | GI50 (WI-38 cells) [nM] | GI50 (OVCAR3 cells) [nM] | GI50 (NCI-H1048 cells) [nM] | IC50 (CyclinB1/CDK1) [nM] | IC50 (CyclinE1/CDK2) [nM] | IC50 (CyclinA2/CDK2) [nM]
1 | CC(C)C[C@@H]1NC(=O)[C@@H](N(C)C(=O)[C@@H](NC(=O)[C@@H]2C[C@@H](F)CN2C(=O)C2(C(F)(F)F)CC(F)(F)C2)C2CC2)CC=CCCCCNC(=O)[C@H](Cc2cc(Cl)ccc2C2=CCN(C(=O)C(C)C)CC2)N(C)C1=O [Example 90] | 4130 | 230 | 260 | 20 | 3700 | 90
2 | CC(C)C[C@@H]1NC(=O)[C@@H](N(C)C(=O)[C@@H](NC(=O)[C@@H]2C[C@@H](F)CN2C(=O)[C@@]2(C(F)(F)F)CCCCO2)C2CC2)CCCCCCCN(C)C(=O)[C@H](Cc2cc(Cl)ccc2-c2cnn(S(=O)(=O)C3CC3)c2)N(C)C1=O [Example 283] ({Oxane2carbonyl(2R-CF3)}-[Pro(trans-4-F)][Gly(cPr)][NMehhhLys(Me)]L[X42]; lactam 3-C) | 14200 | 10 | 10 | 20 | 180 | 30
3 | CC(C)C[C@@H]1NC(=O)[C@@H](N(C)C(=O)[C@@H](NC(=O)[C@@H]2C[C@@H](F)CN2C(=O)C2(C(F)(F)F)CCC2)C2CC2)CC=CCCCCNC(=O)[C@H](Cc2cc(Cl)cnc2OC(C)C)N(C)C1=O (single isomer, unassigned) [Example 136-P2] | 6670 | 640 | 450 | 20 | 120 | 80
4 | Cc1ccc(Cl)cc1C[C@H]1C(=O)NCCCCCCC[C@H](N(C)C(=O)[C@@H](NC(=O)[C@@H]2C[C@@H](F)CN2C(=O)C2(C(F)(F)F)CC(F)(F)C2)C2CC2)C(=O)N[C@@H](CC(C)C)C(=O)N1C [Example 270] ({cBuCO(3,3-F2-1-CF3)}-[Pro(trans-4-F)][Gly(cPr)][NMe(hhhLys)]L[X4]; lactam 3-C) | 13400 | 70 | 80 | 20 | 370 | 60
5 | CC(C)C[C@@H]1NC(=O)[C@@H](N(C)C(=O)[C@@H](NC(=O)[C@@H]2C[C@@H](F)CN2C(=O)C2(C(F)(F)F)CC(F)(F)C2)C2CC2)CCCCCCCN(C)C(=O)[C@H](Cc2cc(Cl)ccc2-c2ccc(CN3CCN(C)CC3)cc2)N(C)C1=O [Example 360] ({cBuCO(3,3-F2-1-CF3)}-[Pro(trans-4-F)][Gly(cPr)][NMehhhLys(Me)]L[X40]; lactam 3-C) | 2720 | 10 | 10 | 20 | 860 | 20
6 | CC(=O)N1CC=C(c2ccc(Cl)cc2C[C@H]2C(=O)N(C)CCCCC=CC[C@H](N(C)C(=O)[C@@H](NC(=O)[C@@H]3C[C@@H](F)CN3C(=O)C3(C(F)(F)F)CCC3)C3CC3)C(=O)N[C@@H](CC(C)C)C(=O)N2C)CC1 [Example 36] | 16000 | 350 | 110 | 20 | 820 | 30
7 | CC(C)C[C@@H]1NC(=O)[C@@H](N(C)C(=O)[C@@H](NC(=O)[C@@H]2C[C@@H](F)CN2C(=O)C2(C(F)(F)F)CC(F)(F)C2)C2CC2)CCCCCCCN(C)C(=O)[C@H](Cc2cc(Cl)ccc2-c2ccc(OC3CCN(C)CC3)cc2)N(C)C1=O [Example 371] ({cBuCO(3,3-F2-1-CF3)}-[Pro(trans-4-F)][Gly(cPr)][NMehhhLys(Me)]L[X103]; lactam 3-C) | 1440 | 10 | 10 | 20 | 920 | 20
8 | CC(=O)N1[C@H]2CC[C@@H]1C=C(c1ccc(Cl)cc1C[C@H]1C(=O)N(C)CCCCCCC[C@H](N(C)C(=O)[C@@H](NC(=O)[C@@H]3C[C@@H](F)CN3C(=O)C3(C(F)(F)F)CC(F)(F)C3)C3CC3)C(=O)N[C@@H](CC(C)C)C(=O)N1C)C2 (single isomer, unassigned) [Example 57-P2] | 16900 | 10 | 10 | 20 | 1310 | 20
9 | CC(C)C[C@@H]1NC(=O)[C@@H](N(C)C(=O)[C@@H](NC(=O)[C@@H]2C[C@@H](F)CN2C(=O)C2(C(F)(F)F)CC(F)(F)C2)C2CC2)CCCCCCCN(C)C(=O)[C@H](Cc2cc(F)ccc2-c2cnn(C3CCC3)c2)N(C)C1=O [Example 96] ({cBuCO(3,3-F2-1-CF3)}-[Pro(trans-4-F)][Gly(cPr)][NMehhhLys(Me)]L[X54]; lactam 3-C) | 8920 | 10 | 10 | 20 | 120 | 20
10 | COc1cc(-c2ccc(Cl)cc2C[C@H]2C(=O)N(C)CCCCCCC[C@H](N(C)C(=O)[C@@H](NC(=O)[C@@H]3C[C@@H](F)CN3C(=O)C3(C(F)(F)F)CC(F)(F)C3)C3CC3)C(=O)N[C@@H](CC(C)C)C(=O)N2C)ccc1N1CCOCC1 [Example 367] ({cBuCO(3,3-F2-1-CF3)}-[Pro(trans-4-F)][Gly(cPr)][NMehhhLys(Me)]L[X91]; lactam 3-C) | 14700 | 10 | 20 | 20 | 1100 | 20
11 | CC(C)C[C@@H]1NC(=O)[C@@H](N(C)C(=O)[C@@H](NC(=O)[C@@H]2C[C@@H](F)CN2C(=O)C2(C(F)(F)F)CC(F)(F)C2)C2CC2)CC=CCCCCN(C)C(=O)[C@H](Cc2cc(Cl)ccc2-c2cnn(C3CC3)c2)N(C)C1=O [Example 78] | 4520 | 40 | 30 | 20 | 640 | 40
12 | CC(C)C[C@@H]1NC(=O)[C@@H](N(C)C(=O)[C@@H](NC(=O)[C@@H]2C[C@@H](F)CN2C(=O)C2(C(F)(F)F)CC(F)(F)C2)C2CC2)CCCCCCCN(C)C(=O)[C@H](Cc2cc(Cl)ccc2-c2cnn(C(C)C)c2)N(C)C1=O [Example 111] ({cBuCO(3,3-F2-1-CF3)}-[Pro(trans-4-F)][Gly(cPr)][NMehhhLys(Me)]L[X79]; lactam 3-C) | 8130 | 10 | 10 | 20 | 280 | 20
13 | CC(C)C[C@@H]1NC(=O)[C@@H](N(C)C(=O)[C@@H](NC(=O)[C@@H]2C[C@@H](F)CN2C(=O)C2(C(F)(F)F)CC(F)(F)C2)C2CC2)CCCCCCCN(C)C(=O)[C@H](Cc2cc(Cl)ccc2-c2ccc(N3CCN4CCOC[C@H]4C3)cc2)N(C)C1=O [Example 364] ({cBuCO(3,3-F2-1-CF3)}-[Pro(trans-4-F)][Gly(cPr)][NMehhhLys(Me)]L[X21]; lactam 3-C) | 3250 | 10 | 10 | 20 | 430 | 20
14 | CC(C)C[C@@H]1NC(=O)[C@@H](N(C)C(=O)[C@@H](NC(=O)[C@@H]2C[C@@H](F)CN2C(=O)C2(C(F)(F)F)CC(F)(F)C2)C2CC2)CC=CCCCCN(C)C(=O)[C@H](Cc2cc(F)ccc2-c2cnn(C3CCC3)c2)N(C)C1=O [Example 88] | 7640 | 30 | 30 | 20 | 200 | 50
15 | CC(C)C[C@@H]1NC(=O)C(N(C)C(=O)[C@@H](NC(=O)[C@@H]2C[C@@H](F)CN2C(=O)C2(C(F)(F)F)CC(F)(F)C2)C2CC2)C/C=C\CCCCN(C)C(=O)[C@H](Cc2cc(Cl)ccc2-c2ccc(N3CCN(C)CC3)cc2)N(C)C1=O (stereo partly drawn) [Example 397] | 3560 | 10 | 10 | 20 | 260 | 20
16 | CC(C)C[C@@H]1NC(=O)[C@@H](N(C)C(=O)[C@@H](NC(=O)[C@@H]2C[C@@H](F)CN2C(=O)C2(C(F)(F)F)CC(F)(F)C2)C2CC2)CCCCCCCNC(=O)[C@H](Cc2cc(Cl)ccc2C(C)C)N(C)C1=O [Example 63] ({cBuCO(3,3-F2-1-CF3)}-[Pro(trans-4-F)][Gly(cPr)][NMe(hhhLys)]L[X88]; lactam 3-C) | 3170 | 240 | 110 | 20 | 3510 | 120
17 | CCOC(=O)N1CC=C(c2ccc(Cl)cc2C[C@H]2C(=O)NCCCCC=CC[C@H](N(C)C(=O)[C@@H](NC(=O)[C@@H]3C[C@@H](F)CN3C(=O)C3(C(F)(F)F)CC(F)(F)C3)C3CC3)C(=O)N[C@@H](CC(C)C)C(=O)N2C)CC1 [Example 53, Ethyl 4-(4-chloro-2-(((3S,6S,9S)-9-((S)-2-cyclopropyl-2-((2S,4R)-1-(3,3-difluoro-1-(trifluoromethyl)cyclobutane-1-carbonyl)-4-fluoropyrrolidine-2-carboxamido)-N-methylacetamido)-6-isobutyl-4-methyl-2,5,8-trioxo-1,4,7-triazacyclohexadec-11-en-3-yl)methyl)phenyl)-3,6-dihydropyridine-1 (2H)-carboxylate] | 4500 | 180 | 180 | 20 | 12400 | 90
18 | CC(C)C[C@@H]1NC(=O)[C@@H](N(C)C(=O)[C@@H](NC(=O)[C@@H]2C[C@@H](F)CN2C(=O)C2(C(F)(F)F)CC(F)(F)C2)C2CC2)CCCCCCCN(C)C(=O)[C@H](Cc2cc(Cl)ccc2-c2cnn3c2OCCC3)N(C)C1=O [Example 191] ({cBuCO(3,3-F2-1-CF3)}-[Pro(trans-4-F)][Gly(cPr)][NMehhhLys(Me)]L[X5]; lactam 3-C) | 2050 | 10 | 10 | 20 | 260 | 20

Reference: patent US20240408169A1 (priority 2023, published 2024)
